The record followed here is EP0518753B1, “Derivatives of 1,5-diyne-3-cycloalcene, their process of preparation and pharmaceutical compositions containing them” (ADIR ET COMPAGNIE, priority 1991, dated 1992).

The subject of this experiment is cellules L 1210 (Leucémie murine). Description: In vitro cytotoxicity, Microculture Tetrazolium Assay (cell growth inhibition). Type of experiment: cell-based. The settings on record: Mus musculus, L1210, L 1210 cells in RPMI 1640 with 10 % fetal calf serum, read-out: IC₅₀, concentration inhibant à 50 % la croissance cellulaire. On the procedure: Les cellules L 1210 (Leucémie murine) sont cultivées dans du RPMI 1640 complémenté avec 10 % de sérum de veau foetal, 2 mM de L-glutamine, 100 unités/ml de pénicilline, 100 µg/ml de streptomycine et 10 mM d'Hepes (pH : 7,4). L'inhibition de la croissance cellulaire est mesurée selon le "Microculture Tetrazolium Assay" décrit par M. ALLEY et coll. (Cancer Res., 48, 589-601, 1988).
Les résultats de ce test sont exprimés en IC₅₀, concentration inhibant à 50 % la croissance cellulaire. Le produit de référence utilisé est le BCNU, agent alkylant très actif utilisé en clinique.

Turning to `CC(=O)OC1C#C/C=C\C#CCCC1` (stereo not drawn) [exemple 2, 7-Acétoxy-1,5-diyne-3-cyclodécène], the IC50 is 5.6 µM.
Take `O=C1C#Cc2ccccc2C#CCCC1` [exemple 7, 7-Oxo-benzo[c]cyclodéca-1,5-diyne]: the IC50 turned out to be 0.5 µM.
Regarding `O=NN(CCCl)C(=O)NCCCl` [BCNU, reference compound], the IC50 stood at 6.4 µM.
